Experimental findings from patent US6469166B2, “Thiophenopyrimidines” (Neurocrine Biosciences, Inc., priority 1996, dated 2002) are described below.

Molecules are shown by their SMILES.

The target of this assay is T1, human CRF receptors (Homo sapiens, UniProt P34998).
T1 construct: expressed in transfected cells; a membrane suspension of the stably transfected cells was used
T1 sequence (P34998 24-415): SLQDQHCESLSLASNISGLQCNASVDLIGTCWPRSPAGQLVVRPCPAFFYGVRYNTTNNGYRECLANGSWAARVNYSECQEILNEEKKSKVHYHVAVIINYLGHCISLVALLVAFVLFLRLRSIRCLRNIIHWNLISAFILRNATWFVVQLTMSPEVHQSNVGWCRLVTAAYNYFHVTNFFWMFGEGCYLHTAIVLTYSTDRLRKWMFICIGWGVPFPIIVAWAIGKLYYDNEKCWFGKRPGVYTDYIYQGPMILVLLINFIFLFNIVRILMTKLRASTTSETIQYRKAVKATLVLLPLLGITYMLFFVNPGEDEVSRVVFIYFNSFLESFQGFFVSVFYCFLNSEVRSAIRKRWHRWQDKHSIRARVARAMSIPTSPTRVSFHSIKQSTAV
In words: CRF receptor radioligand binding assay ([125I] tyrosine-ovine CRF displacement). The settings on record: compounds found to show the best score in this test. On the procedure:
Compounds were evaluated for binding activity to the CRF receptor by a standard radioligand binding assay as generally described by DeSouza et al. (J. Neutrosci. 7:88-100, 1987). By utilizing various radiolabeled CRF ligands, the assay may be used to evaluate the binding activity of the compounds of the present invention with any CRF receptor subtype. Briefly, the binding assay involves the displacement of a radiolabeled CRF ligand from the CRF receptor. More specifically, the binding assay was performed in 1.5 ml Eppendorf tubes using approximately 1×10^6 cells per tube stably transfected with human CRF receptors. Each tube received about 0.1 ml of assay buffer (e.g., Dulbecco's phosphate buffered saline, 10 mM magnesium chloride, 20 μM bacitracin) with or without unlabeled sauvagine, urotensin I or CRF (final concentration, 1 μM) to determine nonspecific binding, 0.1 ml of [^125I] tyrosine-ovine CRF (final concentration ˜200 pM or approximately the KD as determined by Scatchard analysis) and 0.1 ml of a membrane suspension of cells containing the CRF receptor. […] Following two washes of the pellets, the tubes were cut just above the pellet and monitored in a gamma counter for radioactivity at approximately 80% efficiency. All radioligand binding data were analyzed using a non-linear least-square curve-fitting program. […]

Regarding `CCCN(CCC)c1nc(C)nc2c(-c3c(C)cc(C)cc3C)csc12` [Compound 1, 2-methyl-6-(N,N-dipropylamino)-8-(2,4,6-trimethylphenyl)-thiopheno[3,2-d]pyrimidine], the “score in the CRF receptor binding test” value is recorded as “best score”.
